Patent publication US20130236964A1, “METHODS, NUCLEIC ACID CONSTRUCTS AND CELLS FOR TREATING NEURODEGENERATIVE DISORDERS” (RAMOT AT TEL-AVIV UNIVERSITY LTD., priority 2002, published 2013)

What was measured:
Human BMSCs = assay: Fatty acid composition of BMSC after fatty acid supplementation of media (lipid extraction, gas chromatography); assay type: cell-based
Procedure: DHA and AA were diluted in DMEM with 1% horse serum. α-tocopherol was dissolved in ethanol (absolute) before supplementation. FA and α-tocopherol were stored at 4° C. in darkness to prevent their oxidation. Following forty-eight hours, the “additional differentiation medium” was changed to “differentiation medium”, containing DMEM supplemented with SPN, 2 mM L-glutamine, 200 μM butylated hydroxyanisole (BHA), 1 mM dibutyryl cyclic AMP (dbcAMP), 0.5 mM isobutylmethylxanthine (IBMX), 1 μM retinoic acid (RA) and N2 supplement with increasing amounts of DHA (Sigma) and AA (Sigma) (0, 30, 40, 50 and 60 μM). α-tocopherol was added at a concentration of 40 μM to all samples.
Following removal of medium from the culture dish, adherent cells were washed twice with cold PBS and dried by gentle aspiration with a Pasteur pipette. To each culture dish, 3 ml of a hexane:isopropanol (3:2 vol:vol) (HIP) solvent mixture containing 5 mg/dl butylated hydroxytoluene (BHT) was added. The dishes were gently shaken at room temperature for 10 minutes and the supernates were transferred to methylation tubes. The procedure was repeated with 1.5 ml HIP and the lipid extracts were added to the same tubes. For quantitative experiments which included simultaneous protein determination, lipid extraction was performed with HIP which contained a known amount of heneicosanoic acid (21:0) so as to obtain an internal standard. In addition, for these experiments, known volumes of concentrated cell suspensions were directly extracted with HIP and the protein content was determined from an equal volume of cell concentrates.
The lipid extracts were evaporated to dryness under a stream of nitrogen. […] The tubes were capped under N2, vortexed and heated at 100° C. for 1 hour. The resulting fatty acid methyl esters (FAME) were extracted into hexane, after acidification of the mixture with 3 drops of 3N HCl, and kept under N2 at −20° C. until analysis.
Injection was performed with a split/splitless injector kept at 220° C. at a split ratio of 1:30. Detector temperature was 250° C. The column temperature gradient was as follows: 70° C. for 2 min, increased at a rate of 20° C./min to 150° C. where it remained for 5 min, increased at 3° C./min to 210° C. and a final increase at 10° C./min to 230° C. at which it was kept for 3 min until the end of the run. FAME peaks were integrated and computed with the aid of the Varian Star Integrator computer package and were identified by comparison of their retention times with that of authentic standards. Injection of the samples was performed with the aid of a CTC-AS 200 autosampler.
The amount of individual fatty acids is presented as % weight of the total identified fatty acids and as μg FA/μg protein.

hBMSc = assay: HPLC analysis of dopamine, DOPA and DOPAC in supernatant of differentiating hBMSc; assay type: cell-based, human; conditions: medium supplemented with 56 mM KCl, 10 minutes incubation
Procedure: hBMSc were cultured as described in Table 6 below. [table] Samples were stabilized by adding 88 μl of 85% orthophosphoric acid and 4.4 mg of metabisulfite to ml sample. Dopamine was extracted by aluminium adsorption (Alumina, Bioanalytical Systems Inc.). Separation of injected samples (50 μl) was effected by isocratic elution on a HPLC-electron chemical detection (HPLC-ECD) system with a reverse-phase C18 column (125×4.6 mm dimension, Hichrom, Inc.) in a monochloroacetate buffer mobile phase. The flow rate was set at 1.2 ml per min, and the oxidative potential of the analytical cell was set at +650 mV. Results were validated by co-elution with dopamine standards under varying buffer conditions and detector settings.

mBMSc = assay: Differentiation of mouse BMSc into oligodendrocyte precursors (morphology, survival, A2B5 immunoassay); assay type: cell-based; conditions: for effect on cell-morphology (comparison of substances) / neuronal cell morphology: 24 hr incubation; for neuronal cell morphology: inducing substance alone
Procedure: Mice B5/EGFP (male) were sacrificed by cervical dislocation and were prepared with 70% alcohol solution. […] The cell pellet was resuspended in 1 ml growth medium and diluted to 10 ml. The cells were plated in polystyrene plastic tissue cultures 75 cm^2 flask (Corning Incorporated, Corning, N.Y.) in the “proliferation medium” (see Example 1 hereinabove) for one week. The cells were then transferred to polylysin-coated slide-chambers (3200 cells/well), supplemented “proliferation medium” and incubated for 24 hours at 37° C. The growth medium was then replaced with “oligodendrocytes differentiation media” composed of DMEM supplemented with 2 mM glutamine, SPN, one or more of the following substances: bFGF (10 ng/ml), EGF (10-20 ng/ml), Interlukin-1b (20-40 ng/ml), dbcAMP (1-2 mM), retinoic acid (0.5 or 1 μM), neurotrophin-3 (50 or 100 ng/ml), human platelet derived growth factor (PDGF-AA; 5-20 ng/ml), N2 supplement, triiodothyronien (T3; 40 ng/ml) and ciliary neurotrophic factor (20 ng/ml; CNTF).
The cultures were incubated at 37° C. for 1, 2 or 6 days (replacing growth media with fresh media every two days) then fixed in 4% PFA. Cells were blocked in 10% FCS solution then incubated with 5 ug/ml anti-A2B5 monoclonal antibody (1:200; R&D systems; 1:200) overnight at 4° C. Cells were then washed twice in PBS for 10 min and incubated with goat-anti-mouse Cy-3 second antibody (Jackson laboratories; 1:500) at room temperature for 20 min. The incidence of cells stained positive for A2B5 (an early marker of oligodendrocyte progenitors) was determined by using a fluorescent microscope equipped with Image ProPlus cell-counting program (Cybernetics).

[1] = +DHA (30 μM), Additional differentiation medium

For `CCCCC/C=C\C/C=C\C/C=C\C/C=C\CCCC(=O)O` [AA, arachidonic acid], the “optimal concentration in the additional differentiation medium to obtain the best cellular FA profile” value (Human BMSCs) was 40 µM.

With `CC/C=C\C/C=C\C/C=C\C/C=C\C/C=C\C/C=C\CCC(=O)O` [DHA, docosahexaenoic acid] the “optimal concentration in the additional differentiation medium to obtain the best cellular FA profile” value (Human BMSCs) was 40 µM, the “20:4 n-6 of BMSC” value (Human BMSCs; [1]) was 8.15 % weight and the “22:6 n-3 of BMSC” value (Human BMSCs; [1]) was 16.70 % weight. For the same molecule, the “Sum MUFA of BMSC” value (Human BMSCs; [1]) was 24.24 % weight, the “Sum PUFA of BMSC” value (Human BMSCs; [1]) was 33.08 % weight and the “Sum Saturated fatty acids of BMSC” value (Human BMSCs; [1]) was 42.69 % weight. For the same molecule, the “20:4 n-6 of BMSC” value (Human BMSCs; +DHA, Differentiation medium) was 5.40 % weight, the “22:6 n-3 of BMSC” value (Human BMSCs; +DHA, Differentiation medium) was 13.01 % weight and the “Sum MUFA of BMSC” value (Human BMSCs; +DHA, Differentiation medium) was 12.32 % weight. The “Sum PUFA of BMSC” value (Human BMSCs; +DHA, Differentiation medium) was 25.71 % weight and the “Sum Saturated fatty acids of BMSC” value (Human BMSCs; +DHA, Differentiation medium) was 61.79 % weight.

With `[Cl-].[K+]` [KCl] the “effect on dopamine secretion” value (hBMSc) was “further enhanced dopamine secretion”.

For `CCCC(=O)Nc1ncnc2c1ncn2[C@@H]1O[C@@H]2COP(=O)(O)O[C@H]2[C@H]1OC(=O)CCC` [dbcAMP, dibutyryl cyclic AMP], the “effect on cell-morphology (comparison of substances)” value (shortened to “effect on cell-morphology”) (mBMSc) was “most pronounced effect on cell-morphology” and the neuronal cell morphology (mBMSc) was “Neuronal cell morphology was observed”.

`N[C@@H](Cc1cc(I)c(Oc2ccc(O)c(I)c2)c(I)c1)C(=O)O` [thyroid factor 3, triiodothyronien] was tested, and the “effect on cell-morphology” value (mBMSc) was “most pronounced effect on cell-morphology”.

For `Cc1c(C)c2c(c(C)c1O)CC[C@@](C)(CCC[C@H](C)CCC[C@H](C)CCCC(C)C)O2` [α-Tocopherol, α-tocopherol], the “effect on PUFA composition of the neuron-like cells” value (Human BMSCs; 40 μM) was “did not affect the PUFA composition”.

For “IL-6: IL-6, named only in the result sentence (data not shown)”, the “effect on cell-morphology” value (mBMSc) was “most pronounced effect on cell-morphology”.

Interlukin-1b [IL-1b] was tested, and the neuronal cell morphology (mBMSc) was “Neuronal cell morphology was observed”.

B1: neurotrophin-3 (protein, UniProt P20783 139-257, looked up)
Neurotrophin-3: YAEHKSHRGEYSVCDSESLWVTDKSSAIDIRGHQVTVLGEIKTGNSPVKQYFYETRCKEARPVKNGCRGIDDKHWNSQCKTSQTYVRALTSENNKLVGWRWIRIDTSCVCALSRKIGRT
notes: neurotrophin-3, inducing substance in oligodendrocytes differentiation media
In the case of B1, the “incidence of antibody-labeled A2B5 (comparison of substances)” value (mBMSc) is reported as “highest incidence”, the “effect on cell-morphology” value (mBMSc) is reported as “most pronounced effect on cell-morphology” and the neuronal cell morphology (mBMSc) is reported as “Neuronal cell morphology was observed”.
